Values of other authors as cited in PMC9371267 (PLoS Biology, 2022).

Legend:
GALRs = conditions: Trp2 replaced with alanine; ref [4]; cited from earlier work
Source text: (§1) Activated GPCRs act as nucleotide exchange factors through direct interactions with heterotrimeric G-proteins. The C-terminal helix of mGαqiN fits into a hydrophobic pocket formed by TM 5–7 of GALR2 (Fig 1B). Phe228, Ile235, Asn239, and Tyr243 of mGαqiN form the principal interface with GALR2, and a salt bridge forms between Glu135^ICL2 of GALR2 and Arg32 of mGαqiN (Fig 1B). […] The modeled fra ...

GALR2 = conditions: endogenous ligands; ref [13]; cited from earlier work
Source text: as §1

GALR2 vs GALR1 = conditions: GALR2 over GALR1; ref [3]–[5]; cited from earlier work
Source text: Its GPCR family receptors (from GALR1 to GALR3) are associated with different disease states and have been used as markers for certain cancer types. […] Agonists for GALR2 are be ...

GALR2 and GALR3 vs GALR1 = conditions: ref [3],[14]; cited from earlier work
Source text: Phe264 and Leu266 in ECL3 contact Leu10^P and Trp2^P ...

## Trp2^P of galanin with alanine: galanin with Trp2^P replaced with alanine (GATLNSAGYLLGPHAVGNHRSFSDKNGLTS; Galanin; UniProt P22466 33-62, looked up, variant W2A)
GALRs
  binding to GALRs: prevents binding to GALRs

## galanin-like peptide (APAHRGRGGWTLNSAGYLLGPVLHLPQMGDQDGKRETALEILDLWKAIDGLPYSHPPQPS; Galanin-like peptide; UniProt Q9UBC7 25-84, looked up) [GALP]
GALR2
  activation of GALR2: activate GALR2

## galanin^2–11: truncated peptide galanin^2–11
GALR2 vs GALR1
  binds to GALR2 more tightly than GALR1: roughly 500 times
GALR2 and GALR3 vs GALR1
  receptor specificity: specificity for GALR2 and GALR3 over GALR1

B1: spexin (peptide, UniProt Q9BT56 27-116, looked up)
Spexin: APQRLLERRNWTPQAMLYLKGAQGRRFISDQSRRKDLSDRPLPERRSPNPQLLTIPEAATILLASLQKSPEDEEKNFDQTRFLEDSLLNW
modifications: Spexin
GALR2
  activation of GALR2: activate GALR2
